# Data from patent US9796677B2, “Amide compound and pharmaceutical comprising same” (JAPAN SCIENCE AND TECHNOLOGY AGENCY, priority 2013, dated 2017).
# Target: T1, O-acylisopeptide of Aβ (Homo sapiens, UniProt P05067)
# T1 construct: containing O-acylisopeptide of Aβ (10 μM)
# Assay: Aβ aggregation inhibition test (thioflavine T fluorescence)
# Format: biochemical
# Conditions: final sample concentration 30 μM, Aβ O-acylisopeptide 10 μM, pH 7.4, 37° C., 1% DMSO; DMSO control defined as 100
# Experimental: A test sample solution (solution in DMSO) was added into a 0.1 M phosphate buffer solution (pH 7.4, 50 μL) containing O-acylisopeptide of Aβ (10 μM) (final sample concentration: 30 μM, 1% DMSO), and the mixture was incubated at 37° C. for an arbitrary time. Then, an aliquot (10 μL) of the reaction solution was added to a mixed solution of a thioflavine T solution (50 μM thioflavine T, 10 μL) and a 50 mM glycine-NaOH buffer (pH 8.5, 396 μL) and immediately mixed therewith, and the fluorescence intensity of thioflavine T was measured. In the fluorescence intensity measurement, 440 nm was used as an excitation wavelength, and 480 nm was used as a fluorescent wavelength.
# T1 sequence (P05067 672-713 limits assumed): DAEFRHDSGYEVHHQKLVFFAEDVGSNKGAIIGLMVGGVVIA
row,Molecule,Aggregation inhibition ratio (lower value means stronger inhibitory activity)
1,"CC(C)CCNC(=O)c1cc(Cc2ccccc2)cc(OC2CCCCC2)n1 [Compound 4, 4-Benzyl-6-cyclohexyloxy-N-isoamylpicolinamide]",60
2,"CC(C)CCCNC(=O)c1cc(Cc2ccccc2)cc(Oc2ccccc2)n1 [Compound 3, 4-Benzyl-6-phenoxy-N-(4-methylpentyl)picolinamide]",58
3,"CC(C)CCOc1cc(Cc2ccccc2)cc(C(=O)NCCc2ccccc2)n1 [Compound 6, 4-Benzyl-6-(3-methylbutoxy)-N-phenylethylpicolinamide]",60
4,"CC(C)CCNC(=O)c1cc(Cc2ccccc2)cc(OCc2ccccc2)n1 [Compound 5, 6-Benzyloxy-4-benzyl-N-isoamylpicolinamide]",75
5,"O=C(NC1C2CC3CC(C2)CC1C3)c1nc(Cc2ccccc2)cc(Oc2ccccc2)n1 (centres unmarked) [Compound 12, N-(Adamantan-2-yl)-4-benzyl-6-phenoxypyrimidine-2-carboxamide]",40
6,"CC(C)CCNC(=O)c1cc(Cc2ccc3ccccc3c2)cc(Oc2ccccc2)n1 [Compound 2, 4-(Naphthalen-2-yl)methyl-6-phenoxy-N-isoamylpicolinamide]",52
7,"CC(C)CCNC(=O)c1cc(Cc2ccccc2)cc(Oc2ccccc2)n1 [Compound 1, 4-Benzyl-6-phenoxy-N-isoamylpicolinamide]",61

# Test system: Aβ
# Assay: not given
# Conditions: background statement on the known pentapeptide; cited from earlier work
# Aβ, sequence (P05067 672-711 limits assumed): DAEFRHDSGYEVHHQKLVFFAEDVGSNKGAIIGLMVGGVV
row,Molecule,Aβ aggregation inhibitory activity
1,"L-[Lys-Leu-Val-Phe-Phe] (KLVFF) [(known), used as control]",very weak
